Test results published in paper PMC9486936 (ACS Chemical Biology, 2022).

System: NocG
Assay: LC-HRMS, formation of beta-ketoacid […]
Type: biochemical, Nodularia sp. LEGE 06071
Settings: read-out: apparent Km; variable hexanoyl-SNAC with octanoyl-SNAC as co-substrate

## CCCCCC(=O)SCCNC(C)=O [hexanoyl-SNAC]
  Km: 135 ± 29 µM
